In ChEMBL document CHEMBL5321260, “Pseudo-Enantiomeric Paraphaeolactones and Their Biosynthetic Derivatives from Paraphaeosphaeria sp. KT4192: A Proposition of a Favorskii Rearrangement for Their Biosynthesis” (J Nat Prod, 2023):
Calls of active or inactive are those of the source. The rule behind the calls is not given here.

Assays:
[1] = system: COLO 201; experiment: Cytotoxicity against human COLO201 cells assessed as reduction in cell proliferation measured after 24 hrs by WST-1 assay; assay type: functional, cell-based; settings: COLO 201, 24 h
[2] = system: Bipolaris oryzae; experiment: Antifungal activity against Bipolaris oryzae incubated for 5 days; assay type: functional, organism-based; settings: time 5.0 day

Compound: CC(=O)[C@@H](O)c1c(C)ccc2c1O[C@@]1(O2)[C@@]2(O)C=C[C@@H](C)[C@@H]3[C@H]2OC(=O)[C@@]31O
- IC50 [1]: 200 µM
- Activity [2]: inactive

Compound: COC(=O)[C@]12[C@@H](C(C)=O)O[C@H](CC(=O)[C@@H]1O)[C@H]2C
- IC50 [1]: 200 µM
- Activity [2]: inactive

Compound: CC(=O)[C@@H](O)c1c(C)ccc2c1O[C@]1(O2)[C@@]2(O)C=C[C@@H](C)[C@@H]3[C@H]2OC(=O)[C@@]31O
- IC50 [1]: 260 µM
- Activity [2]: inactive

Compound: CC(=O)C(O)c1cc(O)ccc1C (stereo not drawn)
- IC50 [1]: 340 µM
- Activity [2]: inactive

Compound: CC(=O)[C@H](O)[C@H]1[C@H](C)C=CC(=O)[C@@H]1O
- IC50 [1]: > 500 µM
- Activity [2]: inactive

Compound: C=C1OC(=O)[C@]23[C@@H]1O[C@H](CC(=O)[C@@H]2O)[C@H]3C
- IC50 [1]: 390 µM
- Activity [2]: inactive

Compound: Cc1ccc(O)cc1C(=O)[C@H](C)O
- IC50 [1]: 290 µM
- Activity [2]: inactive

Compound: C[C@@H]1C=C[C@]2(O)C[C@@]3(O)C(=O)O[C@@H]2[C@@H]13
- IC50 [1]: > 500 µM
- Activity [2]: inactive

Compound: C[C@@H]1C=C[C@@]2(O)C[C@]3(O)C(=O)O[C@H]2[C@H]13
- IC50 [1]: 300 µM
- Activity [2]: inactive
